Read-outs that look alike come from different tables or passages of the source.

We go through 38 compounds from US9102622B2 (University of Connecticut, priority 2006, dated 2015).

The target of data set [1] is fatty acid amide hydrolase (FAAH) (Rattus norvegicus (Rat), UniProt P97612). Put plainly: FAAH enzyme assay: inhibition of anandamide (AEA) hydrolysis, arachidonic acid quantified by HPLC. The class given is biochemical. Conditions: for IC50 / Ki: eight-point assay; for IC50: anandamide hydrolysis by FAAH, read-out: IC50; for inhibition at 100 µM / inhibition at 0.1 µM: read-out: % Inhibition (Concentration); for Ki: calculated with Prizm software, read-out: Ki; for inhibition at 0.1 µM: inhibitor 100 nM. Here is the method: The resulting supernatant is injected onto the HPLC.

Where [2] appears, read: one-point assay, inhibitor 100 μM, partially purified rat brain FAAH, 15 min.
Where [3] appears, read: one-point assay, partially purified rat brain FAAH, 15 min.

Sequence of fatty acid amide hydrolase (FAAH) (P97612 whole entry): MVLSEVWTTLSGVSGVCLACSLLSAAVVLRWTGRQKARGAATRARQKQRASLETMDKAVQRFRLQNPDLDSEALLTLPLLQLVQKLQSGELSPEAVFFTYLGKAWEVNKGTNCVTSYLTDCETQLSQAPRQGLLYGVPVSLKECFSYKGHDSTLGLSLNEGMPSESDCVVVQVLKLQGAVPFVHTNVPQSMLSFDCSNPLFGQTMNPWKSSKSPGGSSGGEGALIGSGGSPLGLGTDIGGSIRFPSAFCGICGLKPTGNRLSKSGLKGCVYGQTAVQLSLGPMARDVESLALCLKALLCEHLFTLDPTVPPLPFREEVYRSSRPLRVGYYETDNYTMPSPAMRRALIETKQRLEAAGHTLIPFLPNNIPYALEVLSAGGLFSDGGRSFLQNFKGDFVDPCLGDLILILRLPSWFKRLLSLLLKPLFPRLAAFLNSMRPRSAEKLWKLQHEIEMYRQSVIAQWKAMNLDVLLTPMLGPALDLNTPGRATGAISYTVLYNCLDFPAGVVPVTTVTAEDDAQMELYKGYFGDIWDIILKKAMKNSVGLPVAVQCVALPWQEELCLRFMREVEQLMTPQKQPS

By IC50 is commonly meant the point on the concentration scale where inhibition reaches its midpoint. One may read the melting point as the temperature of the solid-liquid transition. Compound `O=S(=O)(F)CCCCCc1ccc(O)cc1` [Compound 14.4, 5-(4-Hydroxy-phenyl)-pentanesulfonyl fluoride] had a melting point of 32 to 35 °C. Further, in data set [1], the half-maximal inhibitory concentration (IC50) stood at 346 nM. Moreover, the inhibition at 100 µM in data set [1] (setting [2]) turned out to be 99%.

Broadly, the Ki is the dissociation constant of the complex between target and ligand, obtained from inhibition or displacement. With `O=C(CCCOc1ccccc1OCc1ccccc1)C(F)(F)F` [Compound 23.8, 1,1,1-Trifluoro-5-[2-(Benzyloxy)phenoxy]-2-pentanone], the melting point lay within 50 to 51 °C. Further, in data set [1], the IC50 was 34600 nM and the Ki is 2280 nM. In addition, in data set [1] (setting [2]), the inhibition at 100 µM was found to be 46%.

As for `O=C(CCCOc1ccc(OCc2ccccc2)cc1)C(F)(F)F` [Compound 23.1, 1,1,1-Trifluoro-5-[4-(benzyloxy)phenoxy]-2-pentanone], the melting point was 59 to 61 °C. Besides, in data set [1], the IC50 came out at 1800 nM and the Ki was 150 nM. Further, in data set [1] (setting [2]), the inhibition at 100 µM turned out to be 96%.

The compound `Cc1nnc(C(=O)c2cccc(-c3cccc(OCc4ccccc4)c3)c2)o1` [Compound 78, 1-(3′-Benzyloxy-1,1′-biphenyl-3-yl)-1-(5-methyl-1,3,4-oxadiazol-2-yl)-ketone] showed a melting point of 97 to 99 °C. In addition, in data set [1] (setting [2]), the inhibition at 100 µM was 56%.

For `O=C(CCCCOc1ccc(O)cc1)C(F)(F)F` [Compound 24.2, 1,1,1-Trifluoro-6-[4-(hydroxy)phenoxy]-2-hexanone], the melting point is 63 to 64 °C. In data set [1], the IC50 was determined as 23200 nM and the inhibition constant Ki is 2600 nM. In addition, the inhibition at 100 µM in data set [1] (setting [2]) is 60%.

As to `COS(=O)(=O)CCCCCCCc1ccc(OCc2ccccc2)cc1` [Compound 18, 7-(4-Benzyloxy-phenyl)-heptane-1-sulfonic acid methyl ester], the melting point lay in the range of 57 to 59 °C. In addition, in data set [1], the IC50 amounted to 256 nM and the inhibition constant Ki is 78 nM. In data set [1] (setting [2]), the inhibition at 100 µM was 93%.

`O=C(NCCCc1ccccc1)Nc1ccccn1` [Compound 59.2, N-(3-phenylpropyl)-N′-(2-pyridinyl)-urea] registered a melting point of 127 to 128 °C.

Regarding `O=C(CCCOc1ccccc1)C(F)(F)F` [Compound 23.11, 1,1,1-Trifluoro-5-phenoxy-2-pentanone], in data set [1], the IC50 stood at 11200 nM and the inhibition constant (Ki) is 1200 nM. Further, in data set [1] (setting [2]), the inhibition at 100 µM turned out to be 79%.

For the compound `O=C(Nc1ccc(Br)cc1)OCc1ccccc1` [Compound 48.3, (4-Bromophenyl)carbamic acid benzyl ester], the inhibition at 100 µM in data set [1] (setting [2]) was 36%.

As to `Cc1nnc(C(=O)C(F)(F)c2ccc(-c3ccccc3)cc2)o1` [Compound 93.1, 2-(Biphenyl-4-yl)-2,2-difluoro-1-(5-methyl-1,3,4-oxadiazol-2-yl)ethanone], in data set [1], the IC50 was 210 nM and the Ki is 65 nM. Besides, the inhibition at 0.1 µM in data set [1] (setting [3]) turned out to be 41%.

`CCOC(=O)Nc1ccc(Br)cc1` [Compound 48.2]: in data set [1], the IC50 was 4000 nM and the Ki was 1200 nM. For the same compound, the inhibition at 100 µM in data set [1] (setting [2]) amounted to 84%.

`COc1cccc(C(=O)c2nnc(C)o2)c1` [Compound 81, 1-(3-Methoxy-phenyl)-1-(5-methyl-1,3,4-oxadiazol-2-yl)-ketone]: the inhibition at 100 µM in data set [1] (setting [2]) was determined as 24%.

For the compound `O=C(c1cccc(Br)n1)C(F)(F)c1ccc(-c2ccccc2)cc1` [Compound 93.7, 2-(Biphenyl-4-yl)-1-(6-bromopyridin-2-yl)-2,2-difluoroethanone], the inhibition at 100 µM in data set [1] (setting [2]) was determined as 94%.

As to `O=C(CCCCOc1ccccc1OCc1ccccc1)C(F)(F)F` [Compound 23.9, 1,1,1-Trifluoro-6-[2-(Benzyloxy)phenoxy]-2-hexanone], in data set [1], the IC50 is 660 nM and the Ki is 46 nM. Moreover, in data set [1] (setting [2]), the inhibition at 100 µM amounted to 97%.

With `CC(=O)C(F)(F)CCCCOc1ccccc1` [Compound 89.2], the inhibition at 100 µM in data set [1] (setting [2]) was 98%.

As for `Cc1nnc(C(=O)C(F)(F)CCCCCCOc2ccccc2)o1` [Compound 89.7, 2,2-Difluoro-8-phenoxy-1-(5-methyl-1,3,4-oxadiazol-2-yl)-octan-1-one], in data set [1], the 50% inhibitory concentration (IC50) stood at 31 nM and the Ki is 9 nM.

As for `O=C(CCCc1ccccc1)C(F)(F)F` [Compound 27.1, 1,1,1-Trifluoro-5-phenyl-2-pentanone], in data set [1], the IC50 amounted to 69400 nM and the Ki was 4600 nM. Besides, in data set [1] (setting [2]), the inhibition at 100 µM came out at 46%.

On to `O=C(Nc1ccc(I)cc1)Oc1ccccc1` [Compound 48.6, (4-Iodophenyl)carbamic acid phenyl ester], for which the inhibition at 100 µM in data set [1] (setting [2]) worked out at 84%.

`OC(O)(c1ccccn1)C(F)(F)CCCCOc1ccccc1` [Compound 89.9 Hydrate form]: in data set [1], the IC50 was 39 nM and the Ki was 12 nM. In data set [1] (setting [3]), the inhibition at 0.1 µM turned out to be 63%.

Regarding `CCCCCCC(C)(C)c1cc(O)c(-c2ccc(NC(=O)OC3CCCCC3)cc2)c(O)c1` [Compound 53.1, 2′,6′-Dihydroxy-4′-(2-methyloctan-2-yl)biphenyl-4-yl carbamic acid cyclohexyl ester], the inhibition at 100 µM in data set [1] (setting [2]) is 23%.

In the case of `O=C1c2ccccc2S(=O)(=O)N1CCCCOc1ccc(O)cc1` [Compound 84, N-[4-(4-Hydroxy-phenoxy)-butyl]saccharin], in data set [1], the IC50 was determined as 9100 nM and the inhibition constant Ki is 900 nM. The inhibition at 100 µM in data set [1] (setting [2]) was found to be 92%.

Consider `O=C(CCCCOc1cccc(O)c1)C(F)(F)F` [Compound 24.6, 1,1,1-Trifluoro-6-[3-(hydroxy)phenoxy]-2-hexanone], for which, in data set [1], the IC50 is 29400 nM and the Ki was 2070 nM. For the same compound, in data set [1] (setting [2]), the inhibition at 100 µM came out at 85%.

Turning to `CCCCCCC(C)(C)c1cc(OCOC)c(-c2ccc(NC(=O)OCC)cc2)c(OCOC)c1` [Compound 52.2, 2′,6′-Bis(methoxymethoxy)-4′-(1,1-dimethylheptyl)[1,1′-biphenyl]-4-yl carbamic acid ethyl ester], the inhibition at 100 µM in data set [1] (setting [2]) is 64%.

In the case of `O=C(c1cccnc1)C(F)(F)CCCCOc1cccc(OCc2ccccc2)c1` [Compound 89.11, 2,2-Difluoro-6-[3-(benzyloxy)phenoxy]-1-(pyridin-3-yl)-hexan-1-one], in data set [1], the 50% inhibitory concentration (IC50) amounted to 24 nM and the Ki is 7 nM. In data set [1] (setting [3]), the inhibition at 0.1 µM stood at 85%.

Regarding `CCCCCCc1ccc(O)c(-c2ccc(C(=O)C(F)(F)F)cc2)c1OC` [Compound 40.3, 2,2,2-Trifluoro-1-(3′-hexyl-6′-hydroxy-2′-methoxybiphenyl-4-yl)ethanone], the inhibition at 100 µM in data set [1] (setting [2]) was 81%.

As for `CCCCCCC(C)(C)c1cc(O)c(-c2ccc(C(=O)C(F)(F)F)cc2)c(O)c1` [Compound 40.1, 1-(2′,6′-dihydroxy-4′-(2-methyloctan-2-yl)biphenyl-4-yl)-2,2,2-trifluoroethanone], the inhibition at 100 µM in data set [1] (setting [2]) was found to be 36%.

The compound `Oc1cccc(OCCCC(O)(O)C(F)(F)F)c1` (hydrate or solvate) [Compound 24.5, 1,1,1-Trifluoro-2,2-dihydroxy-5-[3-(hydroxy)phenoxy]pentane] came in with a melting point of 76 to 77 °C.

Turning to `CCCCCc1cc(OC)c(-c2ccc(C(=O)C(F)(F)F)cc2)c(OC)c1` [Compound 39.2, 1-(2′,6′-Dimethoxy-4′-pentylbiphenyl-4-yl)-2,2,2-trifluoroethanone], the inhibition at 100 µM in data set [1] (setting [2]) worked out at 57%.

`O=C(c1ccccn1)C(F)(F)CCCCOc1ccccc1` [Compound 89.9, 2,2-Difluoro-6-phenoxy-1-(pyridin-2-yl)-hexan-1-one]: in data set [1], the IC50 came to 77 nM and the Ki is 24 nM. For the same compound, the inhibition at 0.1 µM in data set [1] (setting [3]) came to 52%.

Take `O=C(CCCCCCOc1ccccc1)c1nnc(COCc2ccccc2)o1` [Compound 73.1, 7-(Phenoxy)-1-(5-benzyloxymethyl-1,3,4-oxadiazol-2-yl)-heptan-1-one]: in data set [1], the IC50 is 25 nM and the inhibition constant Ki is 2 nM. Moreover, in data set [1] (setting [2]), the inhibition at 100 µM was found to be 94%.

For `O=C(CCCCCc1ccccc1)C(F)(F)F` [Compound 27.3, 1,1,1-Trifluoro-7-phenyl-2-heptanone, reference compound], in data set [1], the IC50 is 11100 nM and the Ki is 1230 nM. The inhibition at 100 µM in data set [1] (setting [2]) amounted to 83%.

`O=C(CCCCCCOc1ccc(O)cc1)c1nnc(COCc2ccccc2)o1` [Compound 74.2, 1-(5-benzyloxymethyl-1,3,4-oxadiazol-2-yl)-7-(4-hydroxy-phenoxy)-heptan-1-one]: in data set [1], the IC50 stood at 39 nM and the Ki was 3 nM. In addition, the inhibition at 100 µM in data set [1] (setting [2]) is 92%.

As to `Cc1nnc(C(=O)C(F)(F)c2ccc(Br)cc2)o1` [Compound 93.5, 2-(4-Bromophenyl)-2,2-difluoro-1-(5-methyl-1,3,4-oxadiazol-2-yl)ethanone], in data set [1], the IC50 amounted to 1670 nM and the Ki was 530 nM. The inhibition at 100 µM in data set [1] (setting [2]) is 97%.

In turn, `O=C(NCCCc1ccccc1)NCc1ccccn1` [Compound 59.1, N-(3-phenylpropyl)-N′-(2-pyridinylmethyl)-urea] displayed a melting point of 89 to 90 °C.

As for `Cc1nnc(C(=O)CCCCCCOc2ccc(O)cc2)o1` [Compound 66, 7-(4-Hydroxy-phenoxy)-1-(5-methyl-1,3,4-oxadiazol-2-yl)-heptan-1-one], in data set [1], the IC50 is 100 nM, the Ki was 6 nM and the inhibition at 100 µM was determined as 97%.

Turning to `O=C(CCCCOc1cccc(OCc2ccccc2)c1)C(F)(F)F` [Compound 23.6, 1,1,1-Trifluoro-6-[3-(Benzyloxy)phenoxy]-2-hexanone], in data set [1], the IC50 came out at 6600 nM and the Ki is 470 nM. The inhibition at 100 µM in data set [1] (setting [2]) turned out to be 97%.

`Cc1nnc(C(=O)CCCCCCOc2ccc(OCc3ccccc3)cc2)o1` [Compound 65.2, 7-(4-Benzyloxy-phenoxy)-1-(5-methyl-1,3,4-oxadiazol-2-yl)-heptan-1-one]: in data set [1], the IC50 came to 120 nM and the Ki is 8 nM. The inhibition at 100 µM in data set [1] (setting [2]) was found to be 96%.

As for `CC(=O)C(F)(F)CCCCCOc1ccccc1` [Compound 89.4, 3,3-difluoro-8-phenoxy-2-octanone], in data set [1], the IC50 is 230 nM and the Ki was 70 nM. In data set [1] (setting [2]), the inhibition at 100 µM amounted to 87%.
